Source: US8093378B2, “Crystallization method for intermediates of carbapenem antibiotics” (Kaneka Corporation, priority 2006, dated 2012)

Tests used:
[1] = Storage stability of the crystals at 60° C. (remaining activity by HPLC); assay type: physicochemical
Procedure: About 500 mg of Compound (1) in a crystalline form obtained in each of Example 1 and Comparative example 1 was weighed out in a glass bottle, and the bottle was tightly sealed. Then, the bottle was left in a constant-temperature room at 60° C. for 8 days.

[2] = Bulk density of crystals passing a 500 μm sieve (tapped); assay type: physicochemical; conditions: crystals with particle size 500 μm or less; weight of crystals/volume of crystals after tapping
Procedure: Arbitrarily, 3.0 g of Compound (1) in a crystalline form obtained in each of Example 1, Comparative example 1, Example 2 and Comparative example 2 was taken out, and was passed through a test sieve with a diameter of 8 cm and a mesh size of 500 μm in accordance with the Japanese Industrial Standard (JIS Z 8801), and the bulk density of the crystals passing through the sieve was measured. […] The bulk density was calculated by using “weight of crystals”/“volume of crystals” as a calculation method.

[3] = Particle size distribution of crystals by sieving (JIS Z 8801 / JIS Z 8901); assay type: physicochemical; conditions: for ratio of weight of crystals, particle size <177 μm: mesh size <177 μm; for ratio of weight of crystals, particle size <350, ≧177 μm: mesh size <350, ≧177 μm; for ratio of weight of crystals, particle size ≧350 μm: mesh size ≧350 μm
Excerpt: Arbitrarily, 3.0 g of Compound (1) in a crystalline form obtained in each of Example 2, Comparative example 2, Example 3 and Comparative example 3 was taken out. Test sieves with a mesh size in accordance with the Japanese Industrial Standard (JIS Z 8801), having a mesh size of 500 μm, 420 μm, 350 μm, 250 μm, 177 μm, 149 μm, 125 μm, 74 μm or 44 μm and an inner diameter of 8 cm, were used, and were shaken by hand in accordance with the measurement procedure of the standard sieving method specified in JIS Z 8901. The results obtained by comparing the particle size distributions between the “crystal of Example 2” and the “crystal of Comparative example 2”, and between the “crystal of Example 3” and the “crystal of Comparative example 3” are shown in Table 3.

[4] = stored at 40° C. for 20 days, crystalline form; cited from earlier work
[5] = Day 1 (set as 100%), crystal in sealed glass bottle at 60° C.
[6] = Day 4, crystal in sealed glass bottle at 60° C.
[7] = Day 6, crystal in sealed glass bottle at 60° C.
[8] = Day 8, crystal in sealed glass bottle at 60° C.

Compound	remaining activity [1, 5] [%]	remaining activity [1, 6] [%]	remaining activity [1, 7] [%]	remaining activity [1, 8] [%]	Bulk Density [2]	ratio of weight of crystals, particle size <177 μm [3] [%]	ratio of weight of crystals, particle size <350, ≧177 μm [3] [%]	ratio of weight of crystals, particle size ≧350 μm [3] [%]	decomposition ([1]; storage at 60° C., 8 days, crystal obtained by the same method as Patent document 4) [%]	decomposition on storage [4]
C[C@@H](O)[C@H]1C(=O)N2C(C(=O)OCc3ccc([N+](=O)[O-])cc3)=C(OP(=O)(Oc3ccccc3)Oc3ccccc3)[C@H](C)[C@H]12 [Comparative Example 1, p-nitrobenzyl (4R,5R,6S)-1-aza-3-diphenyloxyphosphoryloxy-6-[(1R)-1-hydroxyethyl]-4-methyl-7-oxobicyclo[3.2.0]hept-2-en-2-carboxylate, reference compound]	100	96	87	80	0.37					
C[C@@H](O)[C@H]1C(=O)N2C(C(=O)OCc3ccc([N+](=O)[O-])cc3)=C(OP(=O)(Oc3ccccc3)Oc3ccccc3)[C@H](C)[C@H]12 [Comparative example 2, p-nitrobenzyl (4R,5R,6S)-1-aza-3-diphenyloxyphosphoryloxy-6-[(1R)-1-hydroxyethyl]-4-methyl-7-oxobicyclo[3.2.0]hept-2-en-2-carboxylate, reference compound]					0.36	34	47	19		
C[C@@H](O)[C@H]1C(=O)N2C(C(=O)OCc3ccc([N+](=O)[O-])cc3)=C(OP(=O)(Oc3ccccc3)Oc3ccccc3)[C@H](C)[C@H]12 [Comparative example 3, p-nitrobenzyl (4R,5R,6S)-1-aza-3-diphenyloxyphosphoryloxy-6-[(1R)-1-hydroxyethyl]-4-methyl-7-oxobicyclo[3.2.0]hept-2-en-2-carboxylate, reference compound]						25	45	30		
C[C@@H](O)[C@H]1C(=O)N2C(C(=O)OCc3ccc([N+](=O)[O-])cc3)=C(OP(=O)(Oc3ccccc3)Oc3ccccc3)[C@H](C)[C@H]12 [Compound (1), p-nitrobenzyl (4R,5R,6S)-1-aza-3-diphenyloxyphosphoryloxy-6-[(1R)-1-hydroxyethyl]-4-methyl-7-oxobicyclo[3.2.0]hept-2-en-2-carboxylate]									20	not decomposed
C[C@@H](O)[C@H]1C(=O)N2C(C(=O)OCc3ccc([N+](=O)[O-])cc3)=C(OP(=O)(Oc3ccccc3)Oc3ccccc3)[C@H](C)[C@H]12 [Example 1, p-nitrobenzyl (4R,5R,6S)-1-aza-3-diphenyloxyphosphoryloxy-6-[(1R)-1-hydroxyethyl]-4-methyl-7-oxobicyclo[3.2.0]hept-2-en-2-carboxylate]	100	97	92	88	0.43					
C[C@@H](O)[C@H]1C(=O)N2C(C(=O)OCc3ccc([N+](=O)[O-])cc3)=C(OP(=O)(Oc3ccccc3)Oc3ccccc3)[C@H](C)[C@H]12 [Example 2, p-nitrobenzyl (4R,5R,6S)-1-aza-3-diphenyloxyphosphoryloxy-6-[(1R)-1-hydroxyethyl]-4-methyl-7-oxobicyclo[3.2.0]hept-2-en-2-carboxylate]					0.40	10	41	49		
C[C@@H](O)[C@H]1C(=O)N2C(C(=O)OCc3ccc([N+](=O)[O-])cc3)=C(OP(=O)(Oc3ccccc3)Oc3ccccc3)[C@H](C)[C@H]12 [Example 3, p-nitrobenzyl (4R,5R,6S)-1-aza-3-diphenyloxyphosphoryloxy-6-[(1R)-1-hydroxyethyl]-4-methyl-7-oxobicyclo[3.2.0]hept-2-en-2-carboxylate]						18	36	46		
